Test [1] concerns the target T1, CDK4/Cyclin D1 (Homo sapiens, UniProt P11802).
T1 construct: made in house; host or cells: Sf21 insect cells, baculovirus co-infection (pVL1393); the GST-Rb substrate was made in E. coli BL21 (DE3) pLysS
The test is described as follows: CDK4 Inhibition Assay (Scintillation Proximity Assay, GST-Retinoblastoma substrate). The format is biochemical. Conditions: in vitro kinase assay; read-out: CDK4 inhibitory activity IC50. As for the experimental part: The compounds were tested in an in vitro kinase assay in 96 well format using Scintillation Proximity Assay (SPA—obtained from Amersham) for measuring incorporation of [γ-33-P]-Adenosine Triphosphate into a test substrate (GST-Retinoblastoma). In each well was placed the compound to be tested (diluted in DMSO and water to correct concentrations) and in control wells either p 16 as an inhibitor control or DMSO as a positive control.
Approximately 0.51 μl of CDK4/Cyclin D1 partially-purified enzyme (amount dependent on enzyme activity) diluted in 25 μl incubation buffer was added to each well then 20 μl of GST-Rb/ATP/ATP33 mixture (containing 0.5 μg GST-Rb and 0.2 μM ATP and 0.14 μCi [γ-33-P]-Adenosine Triphosphate), and the resulting mixture shaken gently, then incubated at room temperature for 60 minutes. […]
The plates were sealed with Topseal-S plate sealers, left for two hours then spun at 2500 rpm, 1124× g., for 5 minutes. The plates were read on a Topcount for 30 seconds per well. […]
E. coli paste was resuspended in 10 ml/g of NETN buffer (50 mM Tris pH 7.5, 120 mM NaCl, 1 mM EDTA, 0.5%v/v NP-40, 1 mM PMSF, 1 ug/ml leupeptin, 1 ug/ml aprotinin and 1 ug/ml pepstatin) and sonicated for 2×45 seconds per 100 ml homogenate. […] The final product was analysed by Sodium Dodeca Sulfate (SDS) PAGE (Polyacrylamide gel) using 8-16% Tris-Glycine gels (Novex, San Diego, USA). […]
A general note: In a scintillation proximity assay essentially only radioactivity close to the scintillant gives light.

Test [2] addresses T2, human Focal Adhesion Kinase (FAK) (Homo sapiens, UniProt Q05397).
T2 construct: FAK (full length human cDNA described by Andre et al); made in house; host or cells: Sf21 insect cells, recombinant baculovirus (pFastbac 1)
As to the kind of experiment: FAK3 Kinase Inhibition Assay. The format is biochemical. Conditions: in vitro enzyme assay; read-out: FAK inhibitory activity IC50. The source says: FAK3 Kinase Inhibition Assay
This assay determines the ability of a test compound to inhibit tyrosine kinase activity of human Focal Adhesion Kinase (FAK).
DNA encoding FAK is obtained by total gene synthesis (Edwards M, International Biotechnology Lab 5(3), 19-25, 1987) or by cloning. These are then expressed in a suitable expression system to obtain polypeptide with tyrosine kinase activity.
Active FAK protein has been previously expressed in a baculovirus system using a similar N-terminal 6-histidine tag (Protein Expression And Purification, 1996, 7: 12-18). The human FAK cDNA was cloned into the baculovirus transplacement vector, pFastbac 1 (Life Technologies), and the recombinant construct was co-transfected into insect cells (for example Spodoptera frugiperda 21(Sf21)) with viral DNA to prepare recombinant baculovirus (details of the methods for the assembly of recombinant DNA molecules and the preparation and use of recombinant baculovirus can be found in standard texts for example Sambrook et al, 1989, Molecular cloning—A Laboratory Manual, 2nd edition, Cold Spring Harbour Laboratory Press and O'Reilly et al, 1992, Baculovirus Expression Vectors—A Laboratory Manual, W. H. Freeman and Co, New York. Details specific to the use of the pFastbac (‘Bac to Bac’) system are provided in Anderson et al., 1995, FOCUS (Life Technologies Bulletin Magazine), 17, p53.) […]

The text below walks through data of patent US6710052B2, “Pyrimidine compounds” (AstraZeneca, priority 2000, dated 2004).

T1 sequence (P11802 whole entry): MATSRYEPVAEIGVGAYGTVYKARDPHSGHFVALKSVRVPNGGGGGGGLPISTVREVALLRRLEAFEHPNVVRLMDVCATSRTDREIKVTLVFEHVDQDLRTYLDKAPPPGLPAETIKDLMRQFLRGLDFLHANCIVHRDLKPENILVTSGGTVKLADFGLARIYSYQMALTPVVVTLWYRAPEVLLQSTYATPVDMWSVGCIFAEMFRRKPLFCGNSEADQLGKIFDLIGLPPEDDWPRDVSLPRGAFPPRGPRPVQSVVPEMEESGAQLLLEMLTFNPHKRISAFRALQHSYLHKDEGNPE
T1 sequence (P24385 whole entry partner): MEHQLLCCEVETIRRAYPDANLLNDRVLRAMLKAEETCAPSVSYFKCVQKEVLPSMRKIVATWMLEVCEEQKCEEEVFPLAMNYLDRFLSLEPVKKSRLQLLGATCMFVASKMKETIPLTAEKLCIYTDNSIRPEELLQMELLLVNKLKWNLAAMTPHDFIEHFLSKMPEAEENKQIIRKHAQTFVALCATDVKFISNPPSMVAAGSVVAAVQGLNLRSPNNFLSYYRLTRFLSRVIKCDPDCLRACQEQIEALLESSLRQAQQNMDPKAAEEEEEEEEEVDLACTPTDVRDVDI
T2 sequence (Q05397 whole entry): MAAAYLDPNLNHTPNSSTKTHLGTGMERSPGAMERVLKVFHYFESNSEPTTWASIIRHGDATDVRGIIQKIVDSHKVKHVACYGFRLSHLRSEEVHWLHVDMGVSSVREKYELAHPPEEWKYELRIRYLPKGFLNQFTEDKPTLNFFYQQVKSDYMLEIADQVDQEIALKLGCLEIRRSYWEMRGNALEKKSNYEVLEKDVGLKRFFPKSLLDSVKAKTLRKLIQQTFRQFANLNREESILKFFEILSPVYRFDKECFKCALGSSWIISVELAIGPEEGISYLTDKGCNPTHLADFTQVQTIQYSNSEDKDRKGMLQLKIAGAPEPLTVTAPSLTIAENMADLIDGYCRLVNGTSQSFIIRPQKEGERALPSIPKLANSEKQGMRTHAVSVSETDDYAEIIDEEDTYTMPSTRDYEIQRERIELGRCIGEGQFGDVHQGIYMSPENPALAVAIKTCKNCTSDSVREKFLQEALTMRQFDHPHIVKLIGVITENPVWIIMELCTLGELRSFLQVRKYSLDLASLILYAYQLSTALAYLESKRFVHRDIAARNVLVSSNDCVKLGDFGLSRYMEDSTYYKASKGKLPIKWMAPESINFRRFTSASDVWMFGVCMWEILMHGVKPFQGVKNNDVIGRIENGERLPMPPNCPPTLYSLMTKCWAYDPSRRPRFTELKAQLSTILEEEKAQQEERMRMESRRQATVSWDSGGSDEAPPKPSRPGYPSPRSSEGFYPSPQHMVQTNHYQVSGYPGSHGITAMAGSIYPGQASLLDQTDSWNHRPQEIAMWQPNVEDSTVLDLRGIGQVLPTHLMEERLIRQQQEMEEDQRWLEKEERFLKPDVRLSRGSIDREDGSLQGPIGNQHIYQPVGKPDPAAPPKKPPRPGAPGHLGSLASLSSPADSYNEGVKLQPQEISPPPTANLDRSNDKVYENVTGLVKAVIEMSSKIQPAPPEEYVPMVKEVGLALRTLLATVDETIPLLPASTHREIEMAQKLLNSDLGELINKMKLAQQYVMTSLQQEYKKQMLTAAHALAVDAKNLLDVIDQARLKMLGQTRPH

By IC50 is commonly meant the concentration needed to halve the response being measured. For `COc1ccc(Oc2nc(Nc3ccc(OCC(O)CNC(C)C)cc3)ncc2F)cc1` (centres unmarked) [Example 13], the IC50 in test [1] amounted to 896 nM. As for `CN(C)CC(O)COc1ccc(Nc2ncc(Br)c(Sc3ccccc3)n2)cc1` (centres unmarked) [Example 14, 5-Bromo-2-{4-[2-hydroxy-3-(N,N-dimethylamino)propoxy]anilino}-4-(phenylthio)pyrimidine], the IC50 in test [2] was 366 nM.
